Target: T1, OCT1*1D (Pro341Leu/Met408Val) (Homo sapiens, UniProt O15245, L160F/M408V/P341L)
T1 sequence (O15245 1-554 L160F/P341L/M408V): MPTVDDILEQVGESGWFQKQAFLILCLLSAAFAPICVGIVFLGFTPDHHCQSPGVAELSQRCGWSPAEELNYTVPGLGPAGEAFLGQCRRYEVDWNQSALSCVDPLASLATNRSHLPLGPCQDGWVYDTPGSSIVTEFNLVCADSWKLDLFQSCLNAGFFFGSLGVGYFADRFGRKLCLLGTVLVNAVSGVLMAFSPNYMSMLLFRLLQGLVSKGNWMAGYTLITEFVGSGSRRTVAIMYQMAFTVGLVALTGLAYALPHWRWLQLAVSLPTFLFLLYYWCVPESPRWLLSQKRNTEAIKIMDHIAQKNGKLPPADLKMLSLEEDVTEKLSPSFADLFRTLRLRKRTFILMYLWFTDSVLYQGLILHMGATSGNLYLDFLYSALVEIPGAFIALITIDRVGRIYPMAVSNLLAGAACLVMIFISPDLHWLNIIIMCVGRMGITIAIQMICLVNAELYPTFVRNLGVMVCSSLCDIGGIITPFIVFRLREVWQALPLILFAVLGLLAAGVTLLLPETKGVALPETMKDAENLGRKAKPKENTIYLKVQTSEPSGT
Settings: 1 and 10 μM ranitidine, 2 min
Excerpt: HEK293 or CHO cells overexpressing the human OCT1 alleles *1A (characterized by the amino acid substitution Met408Val), *1B, *1C (Phe160Leu), *1D (Pro341Leu/Met408Val), *2 (Met420del), *3 (Arg61Cys), *4 (Gly401Ser), *5 (Gly465Arg/Met420del), *6 (Cys88Arg/Met420del), *7 (Ser14Phe), *8A (Arg488Met), *8B (Arg488Met/Met408Val), *9 (Pro117Leu), *10 (Ser189Leu), *11 (Ile449Thr), *12 (Ser29Leu), or *13 (Thr245Met), the human OCT2 reference and variant alleles (Ala270Ser), human OCT3, and the control cells (transfected with the empty pcDNA5 vector) were generated by targeted chromosomal integration using the Flp-In™ System (Life Technologies, Darmstadt, Germany).
Six hundred thousand HEK293 or CHO cells were plated per well in 12-well plates (pre-coated with poly-D-lysine) and were grown for 48 hours to reach confluence. Cells were kept at 37°C and 5% CO2 in DMEM (HEK293) or RPMI (CHO), supplemented with 10% FCS, 100 U/ml penicillin, and 100 μg/ml streptomycin. Uptake experiments were performed at pH 7.4 using HBSS supplemented with 10 mM HEPES buffer (herein referred to as HBSS+). […]
For all transport measurements, the intracellular amount of substrate was normalized to the total amount of protein of the sample as measured using the bicinchoninic acid assay [49].
For quantification of intracellular substrates, the cell debris were removed by centrifugation at 17,000 x g for 10 min. […]

SMILES: CNC(=C[N+](=O)[O-])NCCSCc1ccc(CN(C)C)o1 [ranitidine, Ranitidine]
- uptake of ranitidine compared to the reference allele: no significant difference
